The assay addresses T1, human ANO6 (Homo sapiens, UniProt Q4KMQ2).
T1 construct: expressed in transfected cells
T1 sequence (Q4KMQ2 1-931 isoform Q4KMQ2-2): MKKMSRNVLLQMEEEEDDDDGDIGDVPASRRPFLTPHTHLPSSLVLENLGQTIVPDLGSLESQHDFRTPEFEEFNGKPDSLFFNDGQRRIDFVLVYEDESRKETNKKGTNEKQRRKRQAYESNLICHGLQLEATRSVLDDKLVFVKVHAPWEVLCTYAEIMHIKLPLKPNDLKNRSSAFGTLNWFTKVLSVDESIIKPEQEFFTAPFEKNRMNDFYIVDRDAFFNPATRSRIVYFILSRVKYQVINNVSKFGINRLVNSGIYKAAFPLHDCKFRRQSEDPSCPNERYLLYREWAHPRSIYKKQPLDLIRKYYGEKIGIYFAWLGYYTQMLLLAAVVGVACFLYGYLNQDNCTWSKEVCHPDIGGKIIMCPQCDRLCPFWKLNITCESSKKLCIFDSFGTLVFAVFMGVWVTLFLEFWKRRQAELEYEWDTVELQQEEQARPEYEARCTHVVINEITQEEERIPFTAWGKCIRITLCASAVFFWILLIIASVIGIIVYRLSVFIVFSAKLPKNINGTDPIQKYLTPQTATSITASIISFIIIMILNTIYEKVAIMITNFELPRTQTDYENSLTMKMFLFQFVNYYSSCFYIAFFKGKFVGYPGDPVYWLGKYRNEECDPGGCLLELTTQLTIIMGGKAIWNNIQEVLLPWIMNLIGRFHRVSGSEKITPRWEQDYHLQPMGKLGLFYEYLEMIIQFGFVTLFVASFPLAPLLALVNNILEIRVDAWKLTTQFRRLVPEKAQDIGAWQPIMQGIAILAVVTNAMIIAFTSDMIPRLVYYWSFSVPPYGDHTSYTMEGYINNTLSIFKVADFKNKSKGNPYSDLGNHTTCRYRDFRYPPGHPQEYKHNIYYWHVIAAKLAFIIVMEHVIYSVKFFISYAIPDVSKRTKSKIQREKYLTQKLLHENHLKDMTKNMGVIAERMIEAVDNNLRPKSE
Description: LACT C2 assay (phosphatidylserine scramblase function assay). The following applies: FRT cells expressing human ANO6, 10 μM ionomycin; for inhibition at 0.1 µM: test compound 100 nM, read-out: Inhibition Level 100 nM; for inhibition at 1 µM: test compound 1 μM, read-out: Inhibition Level 1 μM. The class given is cell-based. The source says:
Phosphatidylserine Scramblase Function Assay
1. Materials and Instruments
Ionomycin (Alomonelab, cat. #I-700), DAPI (Sigma-Aldrich, cat. #D8417), paraformaldehyde (Biosesang, cat. #P2031), Lionheart FX Automated Microscope (BioTek, Winooski), Python3 (Python Software Foundation), and OpenCV (Open Source Computer Vision Library).
Fisher rat thyroid (FRT) cells stably expressing human ANO6 (GenBank accession no. NP_001191732.1, provided by J. H. Nam, Dongguk University College of Medicine, Korea) were grown in DMEM/Ham's F-12 (1:1) medium with 10% FBS, 2 mM L-549 glutamine, 100 units/mL penicillin, and 100 μg/mL streptomycin at 37° C. and 5% CO2.
FRT cells stably expressing human ANO6 were plated in 96 well black-walled microplates at a density of 2×10^4 cells/well. After 24 hours incubation, cells were treated with the test compound (dissolved in DMSO) were treated to each well to become 1% v/v DMSO for 10 minutes, then 10 μM of ionomycin was applied. Finally each well was washed with 200 μL PBS after 10 minutes. After washout, the phosphatidylserine and nuclei were stained with PBS containing 500 nM Lactadherin-C2 (Lact-C2)-GFP, then cells were washed with 200 μL PBS. Cells were fixed with 4% paraformaldehyde for 5 minutes at room temperature. For morphological analysis, some cells were stained with fluorescently labelled DAPI for 15 minutes at room temperature. Quantitative analysis of the fluorescence intensity of Lact-C2-GFP was performed with Python3 and OpenCV. OpenCV was used to remove background and noise pixels, and the sum of all remaining pixel values was used to evaluate the fluorescence intensity of Lact-C2-GFP.
The inhibitory activity (%) of each of the test compounds was obtained by the following steps. In each row of 96 well plate, the inhibitory activity of each of the test compounds was calculated as percentages. The inhibitory activity of a negative control group to which neither compounds nor ionomycin were treated was set to be 100%, and the inhibitory activity of a positive control group to which ionomycin was treated and compounds were not treated was set to be 0%. The assay was performed in triplicate, and the results were averaged.

As to `Cc1cscc1-c1cnc(Nc2cccc(C(=O)Nc3cccc(F)c3)c2)nc1` [Compound 179, N-(3-fluorophenyl)-3-((5-(4-methylthiophen-3-yl)pyrimidin-2-yl)amino)benzamide], the inhibition at 0.1 µM is not below 60%.
The same measure, in the same setting: the value for `CN(c1cccc(C(=O)N[C@@H]2C[C@H]2c2ccccc2)c1)c1ncc(-c2cccc(F)c2)cn1` [Compound 180, 3-((5-(3-fluorophenyl)pyrimidin-2-yl)(methyl)amino)-N-((1R,2S)-2-phenylcyclopropyl)benzamide] was less than 30%; that for `O=C(Nc1ccc2c(c1)CCN2)c1cccc(Nc2ncc(-c3cccc(F)c3)cn2)c1` [Compound 181, 3-((5-(3-fluorophenyl)pyrimidin-2-yl)amino)-N-(indolin-5-yl)benzamide] was less than 30%.
Still for that read-out and setting: the value for `O=C(Nc1cccc(F)c1)c1cccc(NC2CCC(c3ccccc3)C2)c1` (stereo not shown) [Compound 187, N-(3-fluorophenyl)-3-((3-phenylcyclopentyl)amino)benzamide] was less than 30%.
Same read-out and setting: the same measure for `O=C(Nc1cccc(F)c1)C1CCCC(Nc2ccc(-c3ccccc3)nn2)C1` (stereo not shown) [Compound 191, N-(3-fluorophenyl)-3-((6-phenylpyridazin-3-yl)amino)cyclohexane-1-carboxamide]: less than 30%.
For the compound `O=C(Nc1ccc2c(c1)CNC2)c1cccc(Nc2ncc(-c3cccc(F)c3)cn2)c1` [Compound 192, 3-((5-(3-fluorophenyl)pyrimidin-2-yl)amino)-N-(isoindolin-5-yl)benzamide], the inhibition at 0.1 µM is less than 30%.
Take `O=C(Nc1nnc(-c2ccccc2)[nH]1)c1cccc(Nc2ncc(-c3cccc(F)c3)cn2)c1` [Compound 194, 3-((5-(3-fluorophenyl)pyrimidin-2-yl)amino)-N-(5-phenyl-4H-1,2,4-triazol-3-yl)benzamide]: the inhibition at 0.1 µM is less than 30%.
`O=C(NCc1ccc(F)c(C(F)(F)F)c1)c1cccc(Nc2ccc(-c3ccccc3)nn2)c1` [Compound 195, N-(4-fluoro-3-(trifluoromethyl)benzyl)-3-((6-phenylpyridazin-3-yl)amino)benzamide]: the inhibition at 0.1 µM was less than 30% and the inhibition at 1 µM is not below 60%.
As to `O=C(NC1(c2ccc(F)cc2)CC1)c1cccc(Nc2ccc(-c3ccccc3)nn2)c1` [Compound 196, N-(1-(4-fluorophenyl)cyclopropyl)-3-((6-phenylpyridazin-3-yl)amino)benzamide], the inhibition at 0.1 µM was less than 30% and the inhibition at 1 µM was 30 to 60%.
Regarding `CN1CCN(c2ccc(CNC(=O)c3cccc(Nc4ccc(-c5ccccc5)nn4)c3)cc2)CC1` [Compound 197, N-(4-(4-methylpiperazin-1-yl)benzyl)-3-((6-phenylpyridazin-3-yl)amino)benzamide], the inhibition at 0.1 µM was less than 30% and the inhibition at 1 µM is less than 30%.
Consider `O=C(NCCc1ccc(F)cc1)c1cccc(Nc2ccc(-c3ccccc3)nn2)c1` [Compound 198, N-(4-fluorophenethyl)-3-((6-phenylpyridazin-3-yl)amino)benzamide], for which the inhibition at 0.1 µM is less than 30% and the inhibition at 1 µM was not below 60%.
`O=C(N[C@@H]1C[C@H]1c1ccc(F)cc1)c1cccc(Nc2ccc(-c3ccccc3)nn2)c1` [Compound 199]: the inhibition at 0.1 µM is not below 60% and the inhibition at 1 µM is not below 60%.
With `O=C(NCc1ccc(F)cc1Br)c1cccc(Nc2ccc(-c3ccccc3)nn2)c1` [Compound 200, N-(2-bromo-4-fluorobenzyl)-3-((6-phenylpyridazin-3-yl)amino)benzamide], the inhibition at 0.1 µM was less than 30% and the inhibition at 1 µM is not below 60%.
In the case of `O=C(NCc1ccc(F)c(Br)c1)c1cccc(Nc2ccc(-c3ccccc3)nn2)c1` [Compound 201, N-(3-bromo-4-fluorobenzyl)-3-((6-phenylpyridazin-3-yl)amino)benzamide], the inhibition at 0.1 µM is less than 30% and the inhibition at 1 µM lay within 30 to 60%.
For `O=C(NCc1ccc(C(F)(F)F)cc1)c1cccc(Nc2ncc(-c3cccc(F)c3)cn2)c1` [Compound 202, 3-((5-(3-fluorophenyl)pyrimidin-2-yl)amino)-N-(4-(trifluoromethyl)benzyl)benzamide], in that order: less than 30% and 30 to 60%.
Regarding `O=C(NCc1ccccc1F)c1cccc(Nc2ncc(-c3cccc(F)c3)cn2)c1` [Compound 203, N-(2-fluorobenzyl)-3-((5-(3-fluorophenyl)pyrimidin-2-yl)amino)benzamide], the inhibition at 0.1 µM was less than 30% and the inhibition at 1 µM was less than 30%.
For the compound `O=C(NCc1ccccc1C(F)(F)F)c1cccc(Nc2ncc(-c3cccc(F)c3)cn2)c1` [Compound 204, 3-((5-(3-fluorophenyl)pyrimidin-2-yl)amino)-N-(2-(trifluoromethyl)benzyl)benzamide], the inhibition at 0.1 µM is less than 30% and the inhibition at 1 µM lay in the range of 30 to 60%.
`O=C(NCc1c(F)cc(F)cc1F)c1cccc(Nc2ncc(-c3cccc(F)c3)cn2)c1` [Compound 205, 3-((5-(3-fluorophenyl)pyrimidin-2-yl)amino)-N-(2,4,6-trifluorobenzyl)benzamide]: the inhibition at 0.1 µM is less than 30% and the inhibition at 1 µM lay in the range of 30 to 60%.
Taken in the same sequence, the figures for `Cc1ccc(CNC(=O)c2cccc(Nc3ncc(-c4cccc(F)c4)cn3)c2)c(C)c1` [Compound 206, N-(2,4-dimethylbenzyl)-3-((5-(3-fluorophenyl)pyrimidin-2-yl)amino)benzamide] were less than 30% and 30 to 60%.
Taken in the same sequence, the figures for `O=C(NCc1ccc(Cl)cc1Cl)c1cccc(Nc2ncc(-c3cccc(F)c3)cn2)c1` [Compound 207, N-(2,4-dichlorobenzyl)-3-((5-(3-fluorophenyl)pyrimidin-2-yl)amino)benzamide] were less than 30% and 30 to 60%.
For `O=C(NCc1ccc(C(F)(F)F)cc1C(F)(F)F)c1cccc(Nc2ncc(-c3cccc(F)c3)cn2)c1` [Compound 208, N-(2,4-bis(trifluoromethyl)benzyl)-3-((5-(3-fluorophenyl)pyrimidin-2-yl)amino)benzamide], in that order: less than 30% and 30 to 60%.
Take `O=C(NCc1cc(F)c(F)cc1F)c1cccc(Nc2ncc(-c3cccc(F)c3)cn2)c1` [Compound 209, 3-((5-(3-fluorophenyl)pyrimidin-2-yl)amino)-N-(2,4,5-trifluorobenzyl)benzamide]: the inhibition at 0.1 µM is less than 30% and the inhibition at 1 µM is less than 30%.
Regarding `Cc1cc(F)ccc1CNC(=O)c1cccc(Nc2ccc(-c3ccccc3)nn2)c1` [Compound 210, N-(4-fluoro-2-methylbenzyl)-3-((6-phenylpyridazin-3-yl)amino)benzamide], the inhibition at 0.1 µM is less than 30% and the inhibition at 1 µM was not below 60%.
For `O=C(NCc1ccc(F)c(Cl)c1)c1cccc(Nc2ccc(-c3ccccc3)nn2)c1` [Compound 211, N-(3-chloro-4-fluorobenzyl)-3-((6-phenylpyridazin-3-yl)amino)benzamide], in that order: less than 30% and not below 60%.
For `N#CC(NC(=O)c1cccc(Nc2ccc(-c3ccccc3)nn2)c1)c1ccc(F)cc1` (stereo not shown) [Compound 212, N-(cyano(4-fluorophenyl)methyl)-3-((6-phenylpyridazin-3-yl)amino)benzamide], in that order: less than 30% and less than 30%.
